Patent publication US7683168B2, “Compositions of novel opioid compounds and method of use thereof” (priority 2005, dated 2010)

Assays:
[1] = tested on: seizure-like convulsions in mice; experiment: mouse seizure-like convulsions; format: in vivo
Procedure: Mouse Seizure-Like Convulsions and antinociception: The central (CNS) effects of the compound were tested with central delta receptor mediated seizure-like convulsions and central mu opioid receptor mediated antinociceptive effects in mice. Male CD-1 mice (Charles River, Raleigh, N.C.) weighing 20-25 g were used to determine the seizure-like convulsion and antinociception activities for compounds.
They were then observed for seizure-like convulsions for one hour following the treatment. A seizure-like event was recorded if a mouse had uncontrollable clonic (or tonic/clonic) muscle movements that encompassed its entire body, usually followed by a brief cataleptic period. Catalepsy was determined by placing the animal's front paws on a horizontal bar held 2-3 inches from the cage floor. Cataleptic animals made no attempt to remove their paws.

[2] = biological target: T1, human delta receptor (Homo sapiens, UniProt P41143); experiment: radioligand binding, human delta receptor, HEK-293 cell membranes; details: cell not marked (rat), species not given, read-out: δ
T1 construct: purchased Perkin Elmer, Boston, Mass; 6110549; host or cells: HEK-293 cells
T1 sequence (P41143 whole entry): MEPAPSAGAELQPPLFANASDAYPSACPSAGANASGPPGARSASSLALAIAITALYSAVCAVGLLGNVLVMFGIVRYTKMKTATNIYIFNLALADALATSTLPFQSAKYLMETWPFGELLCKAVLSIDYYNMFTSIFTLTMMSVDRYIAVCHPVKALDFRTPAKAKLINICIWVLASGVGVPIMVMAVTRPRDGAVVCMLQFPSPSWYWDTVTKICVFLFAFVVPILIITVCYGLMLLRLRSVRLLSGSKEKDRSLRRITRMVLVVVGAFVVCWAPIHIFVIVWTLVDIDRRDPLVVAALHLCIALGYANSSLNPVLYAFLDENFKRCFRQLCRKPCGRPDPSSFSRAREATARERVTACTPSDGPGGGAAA

[3] = biological target: T2, human mu opioid receptor (Homo sapiens, UniProt P35372); experiment: radioligand binding, human mu opioid receptor, CHO cell membranes; details: species not given, read-out: μ
T2 construct: purchased Perkin Elmer, Boston, Mass; 6110535; host or cells: CHO cells
T2 sequence (P35372 whole entry): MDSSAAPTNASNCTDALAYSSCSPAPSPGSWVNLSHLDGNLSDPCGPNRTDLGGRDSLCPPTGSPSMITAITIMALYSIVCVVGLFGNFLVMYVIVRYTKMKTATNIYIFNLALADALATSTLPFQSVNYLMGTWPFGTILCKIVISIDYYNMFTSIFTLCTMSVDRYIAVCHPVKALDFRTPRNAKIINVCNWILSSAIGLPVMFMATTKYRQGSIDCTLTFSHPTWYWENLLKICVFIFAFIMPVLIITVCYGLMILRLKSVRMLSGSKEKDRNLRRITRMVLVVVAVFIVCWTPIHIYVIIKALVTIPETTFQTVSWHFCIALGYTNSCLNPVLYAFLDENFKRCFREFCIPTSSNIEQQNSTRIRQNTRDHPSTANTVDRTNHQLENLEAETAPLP

[4] = tested on: mouse vas deferens; experiment: electrically stimulated mouse vas deferens (MVD) ED50; format: cell-based; details: ED50, inhibition of electrically induced contractions

SMILES: CCOC(=O)CN1CCCN(C(=O)c2cccc(C(c3cccc(O)c3)N3C[C@@H](C)N(CC4CC4)C[C@@H]3C)c2)CC1 (some centres unmarked)
- Seiz. ([1]; 20 mg/kg IV): 0% 20 mg/kg IV
- Ki [2]: 1.9 nM
- Ki [3]: 3.9 nM
- EC50 [4]: 38.9 nM

SMILES: C[C@@H]1CN(C(c2cccc(O)c2)c2cccc(C(=O)N3CCCN(CC(=O)O)CC3)c2)[C@@H](C)CN1CC1CC1 (some centres unmarked)
- Seiz. ([1]; 20 mg/kg IV): 0% 20 mg/kg IV
- Ki [2]: 6.8 nM
- Ki [3]: 33.1 nM
- EC50 [4]: 65.2 nM

SMILES: CCOC(=O)CCCN1CCCN(C(=O)c2cccc(C(c3cccc(O)c3)N3C[C@@H](C)N(Cc4ccccc4)C[C@@H]3C)c2)CC1 (some centres unmarked)
- Seiz. ([1]; 10 mg/kg IV): 30% 10 mg/kg IV
- Ki [2]: 50.1 nM
- Ki [3]: 1.2 nM
- EC50 [4]: 10.6 nM

SMILES: C[C@@H]1CN(C(c2cccc(O)c2)c2cccc(C(=O)N3CCCN(CCCC(=O)O)CC3)c2)[C@@H](C)CN1Cc1cccc(F)c1 (some centres unmarked)
- Seiz. ([1]; 10 mg/kg IV): 0% 10 mg/kg IV
- Ki [2]: 94 nM
- Ki [3]: 0.27 nM
- EC50 [4]: 6.37 nM

SMILES: CCOC(=O)CCCCN1CCCN(C(=O)c2cccc(C(c3cccc(O)c3)N3C[C@@H](C)N(Cc4ccccc4)C[C@@H]3C)c2)CC1 (some centres unmarked)
- Seiz. ([1]; 10 mg/kg IV): 25% 10 mg/kg IV
- Ki [2]: 2.6 nM
- Ki [3]: 6.3 nM
- EC50 [4]: 11.1 nM

SMILES: C[C@@H]1CN(C(c2cccc(O)c2)c2cccc(C(=O)N3CCCN(CCCCC(=O)O)CC3)c2)[C@@H](C)CN1Cc1ccccc1 (some centres unmarked)
- Seiz. ([1]; 10 mg/kg IV): 0% 10 mg/kg IV
- Ki [2]: 20.4 nM
- Ki [3]: 23.5 nM
- EC50 [4]: 3.28 nM

SMILES: CCOC(=O)CCCCN1CCCN(C(=O)c2cccc(C(c3cccc(O)c3)N3C[C@@H](C)N(Cc4cccc(F)c4)C[C@@H]3C)c2)CC1 (some centres unmarked)
- Seiz. ([1]; 10 mg/kg IV): 0% 10 mg/kg IV
- Ki [2]: 6.1 nM
- Ki [3]: 15.7 nM
- EC50 [4]: 61.5 nM

SMILES: C[C@@H]1CN(C(c2cccc(O)c2)c2cccc(C(=O)N3CCCN(CCCCC(=O)O)CC3)c2)[C@@H](C)CN1Cc1cccc(F)c1 (some centres unmarked)
- Seiz. ([1]; 10 mg/kg IV): 0% 10 mg/kg IV
- Ki [2]: 35.4 nM
- Ki [3]: 34.8 nM
- EC50 [4]: 14.7 nM

SMILES: C=CCN1C[C@H](C)N(C(c2cccc(O)c2)c2cccc(C(=O)N3CCCN(CCCCCC(=O)O)CC3)c2)C[C@H]1C (some centres unmarked)
- Seiz. ([1]; 10 mg/kg IV): 0% 10 mg/kg IV
- Ki [2]: 5.3 nM
- Ki [3]: 89.9 nM
- EC50 [4]: 19 nM

SMILES: C=CCN1C[C@H](C)N(C(c2cccc(O)c2)c2cccc(C(=O)N3CCCN(Cc4cccc(C(=O)O)c4)CC3)c2)C[C@H]1C (some centres unmarked)
- Seiz. ([1]; 10 mg/kg IV): 0% 10 mg/kg IV
- Ki [3]: 5.5 nM
- EC50 [4]: 6.23 nM

SMILES: C=CCN1C[C@H](C)N(C(c2cccc(O)c2)c2cccc(C(=O)N3CCCN(Cc4ccccc4C(=O)O)CC3)c2)C[C@H]1C (some centres unmarked)
- Seiz. ([1]; 10 mg/kg IV): 40% 10 mg/kg IV
- Ki [3]: 1.4 nM
- EC50 [4]: 2.2 nM

SMILES: C=CCN1C[C@H](C)N([C@@H](c2cccc(O)c2)c2cccc(C(=O)N3CCN(C(=O)OCC)CC3)c2)C[C@H]1C [Example 57, 4-{3-[(R)-((2S,5R)-4-Allyl-2,5-dimethylpiperazin-1-yl)(3-hydroxy-phenyl)methyl]benzoyl}piperazine-1-carboxylic acid ethyl ester]
- Seiz. ([1]; 10 mg/kg IV): 40% 10 mg/kg IV
- Ki [2]: 0.81 nM
- Ki [3]: 0.8 nM
- EC50 [4]: 5.15 nM

SMILES: C=CCN1C[C@H](C)N([C@@H](c2cccc(O)c2)c2cccc(C(=O)N3CCNCC3)c2)C[C@H]1C [Example 58, {3-[(R)-((2S,5R)-4-Allyl-2,5-dimethyl-piperazin-1-yl)-(3-hydroxy-phenyl)-methyl]-phenyl}-piperazin-1-yl-methanone]
- Seiz. ([1]; 10 mg/kg IV): 0% 10 mg/kg IV
- Ki [2]: 5.1 nM
- Ki [3]: 1.1 nM
- EC50 [4]: 12.1 nM

SMILES: CCOC(=O)N1CCN(C(=O)c2cccc([C@H](c3cccc(O)c3)N3C[C@@H](C)N(Cc4ccccc4)C[C@@H]3C)c2)CC1 [Example 62, 4-{3-[(R)-((2S,5R)-4-Benzyl-2,5-dimethyl-piperazin-1-yl)-(3-hydroxy-phenyl)-methyl]-benzoyl}-piperazine-1-carboxylic acid ethyl ester]
- Seiz. ([1]; 10 mg/kg IV): 70% 10 mg/kg IV
- Ki [2]: 2.2 nM
- Ki [3]: 1.7 nM
- EC50 [4]: 6.78 nM

SMILES: C[C@@H]1CN([C@@H](c2cccc(O)c2)c2cccc(C(=O)N3CCN(CC(=O)O)CC3)c2)[C@@H](C)CN1Cc1cccc(F)c1 [Example 67, (4-{3-[(R)-[(2S,5R)-4-(3-Fluoro-benzyl)-2,5-dimethyl-piperazin-1-yl]-(3-hydroxy-phenyl)-methyl]-benzoyl}-piperazin-1-yl)-acetic acid]
- Seiz. ([1]; 10 mg/kg IV): 0% 10 mg/kg IV
- Ki [3]: 10.7 nM
- EC50 [4]: 2.82 nM

SMILES: CCOC(=O)CCCCCN1CCN(C(=O)c2cccc([C@H](c3cccc(O)c3)N3C[C@@H](C)N(Cc4cccc(F)c4)C[C@@H]3C)c2)CC1 [Example 98, 6-(4-{3-[(R)-((2S,5R)-4-(3-Fluorobenzyl)-2,5-dimethyl-piperazin-1-yl)-(3-hydroxy-phenyl)-methyl]-benzoyl}-piperazin-1-yl)-hexanoic acid ethyl ester]
- Ki [2]: 7.1 nM
- Ki [3]: 8.5 nM
- EC50 [4]: 102 nM

SMILES: C[C@@H]1CN([C@@H](c2cccc(O)c2)c2cccc(C(=O)N3CCN(CCCCCC(=O)O)CC3)c2)[C@@H](C)CN1Cc1cccc(F)c1 [Example 99, 6-(4-{3-[(R)-((2S,5R)-4-(3-Fluorobenzyl)-2,5-dimethyl-piperazin-1-yl)-(3-hydroxy-phenyl)-methyl]-benzoyl}-piperazin-1-yl)-hexanoic acid]
- Seiz. ([1]; 10 mg/kg IV): 0% 10 mg/kg IV
- Ki [2]: 15.7 nM
- EC50 [4]: 10.6 nM

SMILES: C[C@@H]1CN([C@@H](c2cccc(O)c2)c2cccc(C(=O)N3CCN(Cc4ccc(C(=O)O)cc4)CC3)c2)[C@@H](C)CN1CC1CC1 [Example 103, 4-(4-{3-[(R)-((2S,5R)-4-Cyclopropylmethyl-2,5-dimethyl-piperazin-1-yl)-(3-hydroxy-phenyl)-methyl]-benzoyl}-piperazin-1-ylmethyl)-benzoic acid]
- Seiz. ([1]; 60 mg/kg PO): 0% 60 mg/kg PO
- Ki [3]: 84.7 nM
- EC50 [4]: 187 nM

SMILES: C[C@@H]1CN([C@@H](c2cccc(O)c2)c2cccc(C(=O)N3CCN(Cc4ccc(C(=O)O)cc4)CC3)c2)[C@@H](C)CN1Cc1cccc(O)c1 [Example 104, 4-(4-{3-[(R)-[(2S,5R)-4-(3-Hydroxy-benzyl)-2,5-dimethyl-piperazin-1-yl]-(3-hydroxy-phenyl)-methyl]-benzoyl}-piperazin-1-ylmethyl)-benzoic acid]
- Ki [2]: 0.99 nM
- Ki [3]: 19.4 nM
- EC50 [4]: 2.06 nM

SMILES: COCCN1C[C@H](C)N([C@@H](c2cccc(O)c2)c2cccc(C(=O)N3CCN(Cc4ccc(C(=O)O)cc4)CC3)c2)C[C@H]1C [Example 105, 4-[4-(3-{(R)-(3-Hydroxy-phenyl)-[(2S,5R)-4-(2-methoxy-ethyl)-2,5-dimethyl-piperazin-1-yl]-methyl}-benzoyl)-piperazin-1-ylmethyl]-benzoic acid]
- Ki [2]: 32 nM
- Ki [3]: 88.6 nM
- EC50 [4]: 30.6 nM

SMILES: C=CCN1C[C@H](C)N([C@@H](c2cccc(O)c2)c2cccc(C(=O)N3CCN(Cc4cccc5c4ccn5CC(=O)O)CC3)c2)C[C@H]1C [Example 107, [4-(4-{3-[(R)-((2S,5R)-4-Allyl-2,5-dimethyl-piperazin-1-yl)-(3-hydroxy-phenyl)-methyl]-benzoyl}-piperazin-1-ylmethyl)-indol-1-yl]-acetic acid]
- Ki [2]: 0.95 nM
- Ki [3]: 6.5 nM
- EC50 [4]: 3.97 nM

SMILES: C=CCN1C[C@H](C)N([C@@H](c2cccc(O)c2)c2cccc(C(=O)N3CCN(CCCCCCC(=O)O)CC3)c2)C[C@H]1C [Example 109, 7-(4-{3-[(R)-((2S,5R)-4-Allyl-2,5-dimethyl-piperazin-1-yl)-(3-hydroxy-phenyl)-methyl]-benzoyl}-piperazin-1-yl)-heptanoic acid]
- Seiz. ([1]; 10 mg/kg IV): 0% 10 mg/kg IV
- Ki [2]: 1.9 nM
- EC50 [4]: 7.48 nM

SMILES: CCOC(=O)CCCCCCN1CCN(C(=O)c2cccc([C@H](c3cccc(O)c3)N3C[C@@H](C)N(Cc4ccccc4)C[C@@H]3C)c2)CC1 [Example 110, 7-(4-{3-[(R)-((2S,5R)-4-Benzyl-2,5-dimethyl-piperazin-1-yl)-(3-hydroxy-phenyl)-methyl]-benzoyl}-piperazin-1-yl)-heptanoic acid ethyl ester]
- Seiz. ([1]; 10 mg/kg IV): 70% 10 mg/kg IV
- EC50 [4]: 18.8 nM

SMILES: C=CCN1C[C@H](C)N([C@@H](c2cccc(O)c2)c2cccc(C(=O)N3CCC[C@H]3C(=O)O)c2)C[C@H]1C [Example 144, 1-{3-[(R)-((2S,5R)-4-Allyl-2,5-dimethyl-piperazin-1-yl)-(3-hydroxy-phenyl)-methyl]-benzoyl}-pyrrolidine-2-carboxylic acid]
- Seiz. ([1]; 10 mg/kg IV): 0% 10 mg/kg IV
- Ki [2]: 0.62 nM
- EC50 [4]: 1.15 nM

SMILES: C=CCN1C[C@H](C)N([C@@H](c2cccc(O)c2)c2cccc(C(=O)N(C)CC(=O)OCC)c2)C[C@H]1C [Example 151, ({3-[(R)-((2S,5R)-4-Allyl-2,5-dimethyl-piperazin-1-yl)-(3-hydroxy-phenyl)-methyl]-benzoyl}-methyl-amino)-acetic acid ethyl ester]
- Seiz. ([1]; 10 mg/kg IV): 100% 10 mg/kg IV
- Ki [3]: 0.5 nM
- EC50 [4]: 1.6 nM

SMILES: C=CCN1C[C@H](C)N([C@@H](c2cccc(O)c2)c2cccc(C(=O)N(C)CC(=O)O)c2)C[C@H]1C [Example 152, ({3-[(R)-((2S,5R)-4-Allyl-2,5-dimethyl-piperazin-1-yl)-(3-hydroxy-phenyl)-methyl]-benzoyl}-methyl-amino)-acetic acid]
- Seiz. ([1]; 10 mg/kg IV): 0% 10 mg/kg IV
- Ki [2]: 0.7 nM
- EC50 [4]: 2.36 nM
